In US7902373B2 (Pfizer Inc, priority 2006, dated 2011):

Target: human recombinant H-PGDS (Homo sapiens, UniProt O60760)
Test: Fluorescence intensity h-PGDS TBA enzyme assay
Format: biochemical
Details: Examples up to 622 (and 3a, 3b)

Sequence of human recombinant H-PGDS (O60760 whole entry): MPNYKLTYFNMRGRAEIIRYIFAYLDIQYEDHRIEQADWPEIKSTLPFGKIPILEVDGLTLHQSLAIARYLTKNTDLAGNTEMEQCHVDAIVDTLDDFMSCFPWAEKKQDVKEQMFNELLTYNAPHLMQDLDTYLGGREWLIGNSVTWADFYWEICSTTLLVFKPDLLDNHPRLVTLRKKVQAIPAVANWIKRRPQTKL

Structure (SMILES)	IC50
CC(C)(C)OC(=O)N1C[C@H](O)[C@H](NC(=O)c2ccc(-c3cccc(F)c3)nc2)C1 (relative stereo) [Example 609, cis-tert-Butyl 3-({[6-(3-fluorophenyl)pyridin-3-yl]carbonyl}amino)-4-hydroxypyrrolidine-1-carboxylate]	5.43 nM
CC(C)(C)OC(=O)N1C[C@@H](O)[C@H](NC(=O)c2ccc(-c3cccc(F)c3)nc2)C1 (relative stereo) [Example 610, Trans-tert-Butyl 3-({[6-(3-fluorophenyl)pyridin-3-yl]carbonyl}amino)-4-hydroxypyrrolidine-1-carboxylate]	6.92 nM
CC(C)(C)C(=O)N1C[C@@H](O)[C@H](NC(=O)c2ccc(-c3cccc(F)c3)nc2)C1 (relative stereo) [Example 612, Trans-N-[1-(2,2-dimethylpropanoyl)-4-hydroxypyrrolidin-3-yl]-6-(3-fluorophenyl)nicotinamide]	12 nM
O=C(N[C@H]1CN(c2cnc3ccccc3n2)C[C@@H]1O)c1ccc(-c2cccc(F)c2)nc1 (relative stereo) [Example 613, trans-6-(3-Fluorophenyl)-N-[4-hydroxy-1-quinoxalin-2-ylpyrrolidin-3-yl]nicotinamide]	3.57 nM
CCc1cn2nc(N3C[C@H](NC(=O)c4ccc(-c5cccc(F)c5)nc4)[C@@H](O)C3)ccc2n1 (relative stereo) [Example 614, Trans-N-[1-(2-ethylimidazo[12-b]pyridazin-6-yl)-4-hydroxypyrrolidin-3-yl]-6-(3-fluorophenyl)nicotinamide]	52.5 nM
Cc1cc(C)c(C#N)c(N2C[C@@H](O)[C@H](NC(=O)c3ccc(-c4cccc(F)c4)nc3)C2)n1 (relative stereo) [Example 615, Trans-N-[1-(3-cyano-4,6-dimethylpyridin-2-yl)-4-hydroxypyrrolidin-3-yl]-6-(3-fluorophenyl)nicotinamide]	5.1 nM
O=C(N[C@@H]1CN(c2nc3ccccc3o2)C[C@H]1O)c1ccc(-c2cccc(F)c2)nc1 (relative stereo) [Example 616, Trans-N-[1-(1,3-benzoxazol-2-yl)-4-hydroxypyrrolidin-3-yl]-6-(3-fluorophenyl)nicotinamide]	5.12 nM
Cc1ccc(C#N)c(N2C[C@H](NC(=O)c3ccc(-c4cccc(F)c4)nc3)[C@@H](O)C2)n1 (relative stereo) [Example 617]	4.1 nM
O=C(N[C@@H]1CN(c2ncc3ccc(F)cc3n2)C[C@H]1O)c1ccc(-c2cccc(F)c2)nc1 (relative stereo) [Example 618, Trans-6-(3-fluorophenyl)-N-[1-(7-fluoroquinazolin-2-yl)-4-hydroxypyrrolidin-3-yl]nicotinamide]	7.33 nM
O=C(N[C@@H]1CN(c2nnnn2-c2ccccc2)C[C@H]1O)c1ccc(-c2cccc(F)c2)nc1 (relative stereo) [Example 619, Trans-6-(3-fluorophenyl)-N-[4-hydroxy-1-(1-phenyl-1H-tetrazol-5-yl)pyrrolidin-3-yl]nicotinamide]	1.19 nM
CCC(CO)n1cnc2c(N3CCC(NC(=O)c4ccc(-c5cccc(F)c5)nc4)CC3)ncnc21 (single isomer, unassigned) [Example 581, 6-(3-Fluorophenyl)-N-(1-{9-[1-(hydroxymethyl)propyl]-9H-purin-6-yl}piperidin-4-yl)nicotinamide]	0.69 nM
CCC(CO)n1cnc2c(N3CCC(NC(=O)c4ccc(-c5cccc(F)c5)nc4)CC3)ncnc21 (single isomer, unassigned) [Example 582, 6-(3-Fluorophenyl)-N-(1-{9-[1-(hydroxymethyl)propyl]-9H-purin-6-yl}piperidin-4-yl)nicotinamide]	1.22 nM
O=C(NC1CCN(CC(F)(F)F)CC1)c1ccc(-c2ccccc2)nc1 [Example 1, 6-Phenyl-N-(1-(2,2,2-trifluoroethyl)piperidin-4-yl)nicotinamide]	0.204 nM
O=C(NC1CCN(c2ccc(C(=O)N3CCOCC3)cn2)CC1)c1ccc(-c2cccc(F)c2)nc1 [Example 3, 6-(3-Fluorophenyl)-N-{1-[5-(morpholin-4-ylcarbonyl)pyridin-2-yl]piperidin-4-yl}nicotinamide]	0.343 nM
CN1CCC(NC(=O)c2ccc(-c3ccccc3)nc2)CC1 [Example 3a, N-(1-Methylpiperidin-4-yl)-6-phenylnicotinamide]	6.86 nM
CCOC(=O)N1CCC(NC(=O)c2ccc(-c3ccccc3)nc2)CC1 [Example 3b, Ethyl 4-{[(6-phenylpyridin-3-yl)carbonyl]amino}piperidine-1-carboxylate]	0.403 nM
CC(C)N1CCC(NC(=O)c2ccc(-c3ccccc3)nc2)CC1 [Example 4, N-(1-Isopropylpiperidin-4-yl)-6-phenylnicotinamide]	2.58 nM
O=C(NC1CCN(Cc2ccccn2)CC1)c1ccc(-c2ccccc2)nc1 [Example 5, 6-Phenyl-N-[1-(pyridin-2-ylmethyl)piperidin-4-yl]nicotinamide]	0.665 nM
O=C(NC1CCN(CC2CCOCC2)CC1)c1ccc(-c2ccccc2)nc1 [Example 6, 6-Phenyl-N-[1-(tetrahydro-2H-pyran-4-ylmethyl)piperidin-4-yl]nicotinamide]	0.377 nM
CC(C)(C)C(=O)N1CCC(NC(=O)c2ccc(-c3ccccc3)nc2)CC1 [Example 7, N-[1-(2,2-Dimethylpropanoyl)piperidin-4-yl]-6-phenylnicotinamide]	0.351 nM
O=C(NC1CCN(Cc2ccccc2)CC1)c1ccc(-c2ccccc2)nc1 [Example 8, N-(1-Benzylpiperidin-4-yl)-6-phenylnicotinamide]	1.57 nM
O=C(NC1CCN(CC(F)(F)F)CC1)c1ccc(-c2ccc(F)cc2)nc1 [Example 9, 6-(4-Fluorophenyl)-N-(1-(2,2,2-trifluoroethyl)piperidin-4-yl)nicotinamide]	23.6 nM

Structure (SMILES)	IC50
CCCC(=O)N1CCC(NC(=O)c2ccc(-c3ccc(F)cc3)nc2)CC1 [Example 10, N-(1-Butyrylpiperidin-4-yl)-6-(4-fluorophenyl)nicotinamide]	78.4 nM
O=C(NC1CCN(Cc2ccccn2)CC1)c1ccc(-c2ccc(F)cc2)nc1 [Example 11, 6-(4-Fluorophenyl)-N-[1-(pyridin-2-ylmethyl)piperidin-4-yl]nicotinamide]	39.4 nM
CN1CCC(NC(=O)c2ccc(-c3ccc(F)cc3)nc2)CC1 [Example 12, 6-(4-Fluorophenyl)-N-(1-methylpiperidin-4-yl)nicotinamide]	694 nM
O=C(NC1CCN(Cc2ccccc2)CC1)c1ccc(-c2ccc(F)cc2)nc1 [Example 13, N-(1-Benzylpiperidin-4-yl)-6-(4-fluorophenyl)nicotinamide]	58 nM
COc1cccc(-c2ccc(C(=O)NC3CCN(CC(F)(F)F)CC3)cn2)c1 [Example 14, 6-(3-Methoxyphenyl)-N-(1-(2,2,2-trifluoroethyl)piperidin-4-yl)nicotinamide]	4.29 nM
COc1cccc(-c2ccc(C(=O)NC3CCN(Cc4ccccn4)CC3)cn2)c1 [Example 15, 6-(3-Methoxyphenyl)-N-[1-(pyridin-2-ylmethyl)piperidin-4-yl]nicotinamide]	2.91 nM
COc1cccc(-c2ccc(C(=O)NC3CCN(C)CC3)cn2)c1 [Example 16, 6-(3-Methoxyphenyl)-N-(1-methylpiperidin-4-yl)nicotinamide]	146 nM
COc1cccc(-c2ccc(C(=O)NC3CCN(Cc4ccccc4)CC3)cn2)c1 [Example 17, N-(1-Benzylpiperidin-4-yl)-6-(3-methoxyphenyl)nicotinamide]	11.7 nM
CCOC(=O)N1CCC(NC(=O)c2ccc(-c3cccc(OC)c3)nc2)CC1 [Example 18, Ethyl 4-({[6-(3-methoxyphenyl)pyridin-3-yl]carbonyl}amino)piperidine-1-carboxylate]	3.94 nM
CCCC(=O)N1CCC(NC(=O)c2ccc(-c3cccc(OC)c3)nc2)CC1 [Example 19, N-(1-Butyrylpiperidin-4-yl)-6-(3-methoxyphenyl)nicotinamide]	36.2 nM
COc1cccc(-c2ccc(C(=O)NC3CCN(C(C)C)CC3)cn2)c1 [Example 20, N-(1-Isopropylpiperidin-4-yl)-6-(3-methoxyphenyl)nicotinamide]	1000 nM
Cc1cccc(-c2ccc(C(=O)NC3CCN(CC(F)(F)F)CC3)cn2)c1 [Example 21, 6-m-Tolyl-N-(1-(2,2,2-trifluoroethyl)piperidin-4-yl)nicotinamide]	0.898 nM
Cc1cccc(-c2ccc(C(=O)NC3CCN(C)CC3)cn2)c1 [Example 22, 6-(3-Methylphenyl)-N-(1-methylpiperidin-4-yl)nicotinamide]	73.3 nM
Cc1cccc(-c2ccc(C(=O)NC3CCN(Cc4ccccc4)CC3)cn2)c1 [Example 23, N-(1-Benzylpiperidin-4-yl)-6-(3-methylphenyl)nicotinamide]	1.72 nM
CCCC(=O)N1CCC(NC(=O)c2ccc(-c3cccc(C)c3)nc2)CC1 [Example 24, N-(1-Butyrylpiperidin-4-yl)-6-(3-methylphenyl)nicotinamide]	2.64 nM
Cc1cccc(-c2ccc(C(=O)NC3CCN(C(C)C)CC3)cn2)c1 [Example 25, N-(1-Isopropylpiperidin-4-yl)-6-(3-methylphenyl)nicotinamide]	7.66 nM
CN1CCC(NC(=O)c2ccc(-c3cccc(F)c3)nc2)CC1 [Example 27, 6-(3-Fluorophenyl)-N-(1-methylpiperidin-4-yl)nicotinamide]	19.1 nM
O=C(NC1CCN(Cc2ccccn2)CC1)c1ccc(-c2cccc(F)c2)nc1 [Example 28, 6-(3-Fluorophenyl)-N-[1-(pyridin-2-ylmethyl)piperidin-4-yl]nicotinamide]	1.72 nM
O=C(NC1CCN(Cc2ccccc2)CC1)c1ccc(-c2cccc(F)c2)nc1 [Example 29, N-(1-Benzylpiperidin-4-yl)-6-(3-fluorophenyl)nicotinamide]	0.946 nM
CC(C)N1CCC(NC(=O)c2ccc(-c3cccc(F)c3)nc2)CC1 [Example 30, 6-(3-Fluorophenyl)-N-(1-isopropylpiperidin-4-yl)nicotinamide]	3.79 nM
CCCC(=O)N1CCC(NC(=O)c2ccc(-c3cccc(F)c3)nc2)CC1 [Example 31, N-(1-Butyrylpiperidin-4-yl)-6-(3-fluorophenyl)nicotinamide]	19.9 nM
